Results: ChEMBL document CHEMBL1201862, “PubChem BioAssay data set” (2004)
Where “and” joins values, the source holds several entries; their conditions need not be identical. Equal entries are not always repeated. Calls of active or inactive are those of the source.

Assays:
[1] = molecular target: T1, Cytochrome P450 1A2 (Homo sapiens, UniProt P05177);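 also: PubChem cytochrome P450 panel assay, CYP1A2 panel member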
T1 sequence (P05177 whole entry): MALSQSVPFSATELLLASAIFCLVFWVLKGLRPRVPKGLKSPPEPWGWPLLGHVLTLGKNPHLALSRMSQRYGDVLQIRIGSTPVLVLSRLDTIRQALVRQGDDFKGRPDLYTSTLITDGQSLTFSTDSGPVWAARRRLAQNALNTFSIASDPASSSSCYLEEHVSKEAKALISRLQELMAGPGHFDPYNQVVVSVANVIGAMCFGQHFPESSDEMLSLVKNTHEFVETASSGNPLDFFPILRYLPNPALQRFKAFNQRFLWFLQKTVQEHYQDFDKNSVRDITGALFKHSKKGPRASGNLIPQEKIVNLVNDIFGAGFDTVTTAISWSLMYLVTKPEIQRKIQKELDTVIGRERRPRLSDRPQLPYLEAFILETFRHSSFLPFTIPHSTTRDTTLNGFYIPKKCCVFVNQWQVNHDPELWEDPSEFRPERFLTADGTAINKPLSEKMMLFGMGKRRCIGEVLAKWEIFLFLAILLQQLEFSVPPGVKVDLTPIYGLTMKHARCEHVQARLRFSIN

[2] = molecular target: Cytochrome P450 2C9 (Homo sapiens, UniProt P11712)
Cytochrome P450 2C9, sequence (P11712 whole entry): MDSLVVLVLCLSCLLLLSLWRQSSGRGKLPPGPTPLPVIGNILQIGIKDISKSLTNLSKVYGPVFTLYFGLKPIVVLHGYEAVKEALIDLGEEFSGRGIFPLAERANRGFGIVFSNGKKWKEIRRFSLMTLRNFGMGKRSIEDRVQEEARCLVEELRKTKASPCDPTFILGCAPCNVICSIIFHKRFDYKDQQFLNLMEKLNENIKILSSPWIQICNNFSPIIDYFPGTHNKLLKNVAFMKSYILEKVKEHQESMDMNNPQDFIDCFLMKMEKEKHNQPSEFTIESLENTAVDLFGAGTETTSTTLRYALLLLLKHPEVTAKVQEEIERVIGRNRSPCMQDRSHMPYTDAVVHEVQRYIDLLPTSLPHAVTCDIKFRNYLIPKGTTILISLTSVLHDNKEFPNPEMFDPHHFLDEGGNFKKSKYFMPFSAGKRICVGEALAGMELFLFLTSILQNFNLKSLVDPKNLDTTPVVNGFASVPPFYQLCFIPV

[3] = molecular target: T2, Heat shock factor protein 1 (Mus musculus, UniProt P38532); experiment: decrease of HSF1-responsive luciferase luminescence – cell-based, NIH3T3, dose retest, confirmation (AID 2382); type: functional;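 also: NIH3T3 fibroblasts with HSF1-driven luciferase reporter stressed by proteasome inhibitor MG132; luminescence from HSF1-driven luciferase expression after 8 hours of MG132 stress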
T2 sequence (P38532 whole entry): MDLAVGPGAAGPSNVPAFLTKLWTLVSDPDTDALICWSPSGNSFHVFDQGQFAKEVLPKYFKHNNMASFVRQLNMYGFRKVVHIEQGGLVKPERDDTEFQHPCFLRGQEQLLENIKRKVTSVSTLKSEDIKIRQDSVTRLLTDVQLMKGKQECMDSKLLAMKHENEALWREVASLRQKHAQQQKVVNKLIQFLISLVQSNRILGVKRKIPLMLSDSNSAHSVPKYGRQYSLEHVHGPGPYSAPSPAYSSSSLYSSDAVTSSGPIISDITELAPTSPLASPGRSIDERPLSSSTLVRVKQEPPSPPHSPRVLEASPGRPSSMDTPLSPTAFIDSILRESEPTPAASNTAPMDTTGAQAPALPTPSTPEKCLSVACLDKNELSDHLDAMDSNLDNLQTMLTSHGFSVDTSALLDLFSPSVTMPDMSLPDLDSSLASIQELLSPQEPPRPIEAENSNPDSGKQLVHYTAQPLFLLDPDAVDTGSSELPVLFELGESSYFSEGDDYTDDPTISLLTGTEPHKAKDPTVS

[4] = system: INS1; experiment: INS-1E survival protection against cytokine death – cell-based, luminescence, retest, dose response (AID 449756); type: functional; details: Rattus norvegicus;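 also: cell death triggered by IL-1 beta plus TNF-alpha plus IFN-gamma mixture; protective hits raise ATP signal compared with cytokine alone wells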
[5] = molecular target: Cytochrome P450 3A4 (Homo sapiens, UniProt P08684);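 also: CYP3A4 tested as one member of a cytochrome P450 panel screen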
Cytochrome P450 3A4, sequence (P08684 whole entry): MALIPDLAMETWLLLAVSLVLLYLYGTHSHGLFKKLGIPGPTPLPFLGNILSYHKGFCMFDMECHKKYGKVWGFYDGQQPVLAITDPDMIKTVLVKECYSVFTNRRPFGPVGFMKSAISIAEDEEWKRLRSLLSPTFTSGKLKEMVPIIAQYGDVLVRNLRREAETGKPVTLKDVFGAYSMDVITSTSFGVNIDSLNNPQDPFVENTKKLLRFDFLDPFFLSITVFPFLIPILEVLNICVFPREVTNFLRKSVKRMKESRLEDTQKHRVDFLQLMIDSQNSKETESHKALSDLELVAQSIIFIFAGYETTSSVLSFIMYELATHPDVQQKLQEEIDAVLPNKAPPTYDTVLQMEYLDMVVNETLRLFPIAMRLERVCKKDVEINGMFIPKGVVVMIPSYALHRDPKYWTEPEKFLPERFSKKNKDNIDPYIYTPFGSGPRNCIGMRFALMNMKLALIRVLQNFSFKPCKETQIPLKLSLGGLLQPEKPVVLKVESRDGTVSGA

[6] = molecular target: Cytochrome P450 2C19 (Homo sapiens, UniProt P33261); experiment: Cytochrome panel assay with activity outcomes. Panel member name: p450-cyp2c19 Compounds with AC50 equal or less than 10 uM are considered active; type: functional; details: read-out: AC50
Cytochrome P450 2C19, sequence (P33261 whole entry): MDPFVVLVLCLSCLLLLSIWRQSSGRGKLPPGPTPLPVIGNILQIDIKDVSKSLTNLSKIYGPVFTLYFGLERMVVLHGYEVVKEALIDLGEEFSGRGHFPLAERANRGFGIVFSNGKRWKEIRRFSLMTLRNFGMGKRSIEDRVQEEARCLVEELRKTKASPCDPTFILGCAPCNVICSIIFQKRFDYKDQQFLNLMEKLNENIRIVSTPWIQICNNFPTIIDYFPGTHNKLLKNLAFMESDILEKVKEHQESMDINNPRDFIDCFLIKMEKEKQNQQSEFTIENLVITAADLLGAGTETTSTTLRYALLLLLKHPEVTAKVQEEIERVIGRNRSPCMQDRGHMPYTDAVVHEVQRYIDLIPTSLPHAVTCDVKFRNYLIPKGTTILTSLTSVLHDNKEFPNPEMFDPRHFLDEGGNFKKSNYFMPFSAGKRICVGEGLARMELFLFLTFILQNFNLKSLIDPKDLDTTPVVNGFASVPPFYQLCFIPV

[7] = Luminescence Cell-Based Dose Response HTS to Identify Activators of Luciferase Translation or Activity in H4 […] Cells. [Related pubchem assays: 1829 (Project Summary), 1814 (Primary HTS)]; type: functional
[8] = system: H4; experiment: Luminescence Cell-Based Dose Response HTS to Identify Activators of 5'UTR Stem-Loop Driven Prion Protein mRNA Translation in H4 Neuroglioblastoma Cells. [Related pubchem assays: 1829 (Project Summary), 1814 (Primary HTS)]; type: functional; details: Homo sapiens
[9] = system: Streptococcus; experiment: GAS UMAA2166 growth inhibition – luminescence, BacTiterGlo, counter-screen for streptokinase expression inhibitor project, dose response (AID 1915); type: functional, organism-based;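 also: potency for reduction of bacterial viability or growth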
[10] = system: Streptococcus sp. 'group A'; experiment: Streptococcus pyogenes SK(-)GAS viability under kanamycin – luminescence, BacTiterGlo, confirmation, counter-screen for streptokinase expression inhibitor project, dose response (AID 1900); type: functional, organism-based
[11] = alpha-synuclein stem-loop luciferase translation blockers – H4 neuroglioma cells, luminescence, confirmation (AID 1988); type: functional, cell-based
[12] = Luminescence Cell-Based Dose Response HTS to Identify Inhibitors of 5'UTR Stem-Loop Driven Prion Protein mRNA Translation in H4 Neuroglioblastoma Cells. [Related pubchem assays: 1827 (Project Summary), 1813 (Primary HTS)]; type: functional
[13] = luciferase reporter signal suppression in cells – H4 neuroglioma cells, luminescence, dose response (AID 1990); type: functional, cell-based
[14] = molecular target: T3, Streptokinase A (Streptococcus pyogenes serotype M1, UniProt P10520); experiment: viability-normalized secreted streptokinase activity reduction – plasminogen activation absorbance, OD405, dose response (AID 1914); type: functional, Streptococcus pyogenes M1 GAS;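 also: secreted streptokinase activity via plasminogen activation per viability signal from cell pellet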
T3 sequence (P10520 whole entry): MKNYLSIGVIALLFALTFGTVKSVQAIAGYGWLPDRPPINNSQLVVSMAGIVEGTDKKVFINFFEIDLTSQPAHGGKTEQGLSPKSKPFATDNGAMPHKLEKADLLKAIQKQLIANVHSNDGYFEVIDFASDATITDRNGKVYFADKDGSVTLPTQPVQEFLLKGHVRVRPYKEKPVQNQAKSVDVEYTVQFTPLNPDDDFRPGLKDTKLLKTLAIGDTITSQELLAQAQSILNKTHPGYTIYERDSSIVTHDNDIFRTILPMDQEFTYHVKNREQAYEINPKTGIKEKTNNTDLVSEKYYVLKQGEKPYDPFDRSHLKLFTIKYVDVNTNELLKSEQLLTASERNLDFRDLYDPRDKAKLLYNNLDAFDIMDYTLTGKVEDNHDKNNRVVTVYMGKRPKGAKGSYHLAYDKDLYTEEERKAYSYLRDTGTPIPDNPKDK

With `NCCCCCCNS(=O)(=O)c1cccc2ccccc12` the AC50 [1] was 25.1 µM (inconclusive) and the AC50 [2] was 0.2 µM (inconclusive).

With `NC(=NOC(=O)Cc1ccccc1[N+](=O)[O-])c1cccnc1` the EC50 [3] was > 195 µM (not active).

With `COc1ccc(C2CC(c3cccc(C)c3)n3nc(N)nc3N2)cc1` (stereo not given) the AC50 [4] was > 260 µM (inactive).

With `c1ccc([C@H]2CNCc3ccccc32)cc1` the AC50 [5] was 15.8 µM (inconclusive).

In the case of `COc1ccc(NC(=O)N2CC[C@@]3(CCCN(C(=O)c4cccc(F)c4)C3)C2)cc1`, the AC50 [1] was 25.1 µM (inconclusive) and the AC50 [5] was 15.8 µM (inconclusive).

For `CSCCC(NC(=O)CCC(=O)OCC(=O)[C@@]1(O)CCC2[C@@H]3CCC4=CC(=O)C=C[C@]4(C)C3[C@@H](O)C[C@@]21C)C(=O)O` (stereo not given in full), the EC50 [3] was 0.216 µM (active).

In the case of `O=C(NCc1ccco1)C(=O)NCC(c1ccco1)N1CCOCC1` (stereo not given), the EC50 [3] was > 195 µM (not active).

In the case of `COc1cc(/C=C2/C(=N)N3OC(C)=CC3=NC2=O)ccc1OCCOc1ccc(C)cc1`, the AC50 [6] was 4.47 µM (inconclusive) and the AC50 [5] was 11.2 µM (inconclusive).

With `CN(C)c1ccc(-c2cc(-n3ccnc3)ncn2)cc1` the AC50 [2] was 0.794 µM (inconclusive).

In the case of `C=C1C(=O)O[C@@H]2[C@@H]1CC/C(C)=C\CC[C@@]1(C)O[C@H]21`, the AC50 [5] was 20 µM (inconclusive) and 12.6 µM (inconclusive).

For `CC1CCN(C2=NC(=O)/C(=C/c3ccccc3F)S2)CC1`, the EC50 [3] was > 195 µM (not active).

For `CO[C@@H]1/C=C\O[C@]2(C)Oc3c(C)c(O)c4c(O)c(c(CN5CCN(C)CC5)c(O)c4c3C2=O)NC(=O)/C(C)=C\C=C[C@@H](C)[C@@H](O)[C@H](C)[C@@H](O)[C@H](C)[C@H](OC(C)=O)[C@@H]1C`, the AC50 [2] was 6.31 µM (inconclusive).

In the case of `O=C(Cc1ccccc1)Nc1nc2ccccc2s1`, the EC50 [3] was > 195 µM (not active).

In the case of `O=C(Nc1cccc(OC(=O)c2cccnc2)c1)c1cccnc1`, the AC50 [2] was 28.2 µM (inconclusive).

With `CSc1nncc(-c2ccc(F)c(F)c2)n1` the AC50 [2] was 28.2 µM (inconclusive).

With `O=C(COc1ccccc1)Nc1ccc(-c2nnc(-c3ccco3)o2)cc1` the AC50 [2] was 1.78 µM (inconclusive) and the AC50 [6] was 10 µM (inconclusive).

In the case of `COc1cc(OC)cc(C(=O)NCC(=O)OCc2nc3ccccc3s2)c1`, the EC50 [7] was 14.6 µM (active) and the EC50 [8] was 0.165 µM (active).

With `O=C(COC(=O)/C=C/c1ccccc1[N+](=O)[O-])Nc1ccc(OCc2ccccc2)cc1` the EC50 [7] was 4.21 µM (active) and the EC50 [8] was 40.1 µM (active).

For `CC(C)CN(Cc1cc(=O)oc2cc(-c3ccccc3)c(O)cc12)CC(C)C`, the EC50 [9] was 14.3 µM (active), the EC50 [10] was 5.29 µM (active) and the EC50 [11] was > 120 µM (not active). The EC50 [12] was > 120 µM (not active), the EC50 [13] was 12.1 µM (active) and the EC50 [14] was 2.43 µM (active).
